Results taken from patent US20230157935A1, “GADUSOL-CONTAINING SUNSCREEN FORMULATIONS” (Arcaea, LLC, priority 2021, published 2023).

What was measured:
erythrocytes = test: Cell-based antioxidant protection in erythrocytes (CAP-e) assay
Method: The cell-based antioxidant protection in erythrocytes (CAP-e) assay (Honzel et. al., 2008, and Jensen G S. Cell-based antioxidant protection assay, also disclosed in U.S. Pat. No. 8,465,988, incorporated herein in its entirety by this reference) was used. This testing was selected to measure antioxidant power but, in addition, the method ensures that the antioxidant agent crosses the cell's lipid boundary layer so that only intracytoplasmic activity is measured. […] The tested concentrations for both gadusol and the porphyra-334 ranged from 0.001 to 3.33 mg/mL.

Vero E6 fibroblasts = test: Cellular toxicity compared to oxybenzone; format: cell-based
Source text: (§1) The amount of gadusol incorporated to provide the intended in vivo sunscreen SPF boosting activity can be from about 0.25, 0.50, 0.75, 1.0, 1.25, 1.50, 1.75, or 2.0% (w/w) in the sunscreen formulation that includes a physical/inorganic sunscreen active material, where any value can form an upper or lower endpoint, as appropriate. Still further, the amount of gadusol in the sunscreen formulation can be from about 0.25 to 2.0% (w/w), or from about 0.5 to 1.0% (w/w). In these, and possibly other amounts, gadusol suitably can provide a safe and effective sunscreen boosting effect when combined with sunscreen active ingredients. […] To summarize these safety tests, the cellular toxicity of gadusol was compared to that of a common sunscreen ingredient, oxybenzone. Vero E6 fibroblasts were used to evaluate toxicity. […] Toxicity towards E. coli was also not found.

E. coli = test: Toxicity towards E. coli; format: cell-based
Source text: as §1

[1] = Stability of aqueous gadusol under acidic conditions, spectrophotometric at 296 nm; format: physicochemical
Method: Yet further, the inventors have determined that the stability of aqueous gadusol can be improved when stored under acidic conditions. For example, 90% gadusol activity can be retained after 90 days at pH 2.5, where the concentration of gadusol is determined spectrophotometrically at 296 nm where it has an extinction coefficient of 21,800 M^−1cm^−1. A standardized concentration curve can be used to determine an amount of gadusol in a volume sampled from a test solution at various time periods. Therefore, storage under acidic conditions may be useful for stabilizing gadusol generally, e.g., prior to introduction into a topical formulation. Combining gadusol with another antioxidant may be useful for extending the shelf life or stability of gadusol in a topical formulation.

Comet assay = format: cell-based
Source text: as §1

[2] = In vitro SPF determination on VitroSkin, absorbance scan 290-400 nm; format: physicochemical
Method: SPF can also be evaluated using an in vitro method that utilizes a synthetic/simulated skin as a test substrate. In this regard, VitroSkin® is an advanced testing substrate that effectively mimics the surface properties of human skin. It has been formulated to have topography, pH, critical surface tension, chemical reactivity and ionic strength that is similar to human skin.
SPF was also evaluated using an in vitro method that utilizes a synthetic/simulated skin as a test substrate. In this regard, VitroSkin® is an advanced testing substrate that effectively mimics the surface properties of human skin. It has been formulated to have topography, pH, critical surface tension, chemical reactivity and ionic strength that is similar to human skin. The procedure for in vitro testing was conducted according to a standard protocol. For testing, the test product was applied in a known amount to the substrate at an application density of 2 mg/cm^2. The in vitro SPF scores were determined using a Labsphere UV-1000 Ultraviolet Transmittance Analyzer. Spectral scans of absorbance of the artificial skin treated with a sample sunscreen formulation were performed in the UV region of 290-400 nm. The in vitro SPF was then calculated using the absorbance scan results. At least 5 in vitro SPF values were recorded for each example formulation and the averages calculated for reporting.

Ames Test = format: cell-based
[3] = Folin-Ciocalteu antioxidant capacity; conditions: about 0.3 to 10 mg/ml
[4] = tested on: human skin (subject's back); test: In vivo SPF determination (FDA 21 CFR 201.327, MEDp/MEDu)
Source text: SPF can be measured in vivo according to the methodology set out in FDA 2011 Final Rule issued on Jun. 17, 2011, by the Federal Register. This method is very similar to the ISO 24444:2010 method used to measure SPF in the EU, as well as other countries. In fact, both methods are based on the International Sun Protection Factor (SPF) test method, COLIPA: Bruxelles, Belgium, 2006. The slight differences between the ISO and FDA methods are understood to generate no meaningful difference in the results. […] The main differences between the methods are the following: the calibration times of the UV source (each 12 months for the FDA, each 18 months for the ISO); the reference sunscreen products (P2 for the FDA and P2, P3 or P7 for the ISO); progressions of exposure times used. The disclosures of each of these in vivo SPF testing methods are incorporated herein their entirety by this reference.
The product is then labeled with the appropriate SPF value indicating the amount of sunburn protection provided by the product.
An in vivo SPF determination was conducted according to FDA, 21 CFR Sec. 201.327, subpart (i), SPF Test Procedure, Sunscreen Drug Products for Over-the-Counter Human Use, Final Monograph, Federal Register, Vol. 76, No. 117, Jun. 17, 2011, the disclosure of which is incorporated herein in its entirety by this reference. […]
For a baseline value, a series of 5 UV radiation doses expressed as Joules/square meter, increasing in 25% increments, was administered to two unprotected separate locations on each test subject's back, just below the shoulder blades and above the belt-line, to determine the initial unprotected MED (MEDu).
On Day 2, subjects returned to the testing laboratory within 16 to 24 hours following completion of the MEDu doses for evaluation of their responses, and to determine each subject's unprotected MED (MEDu). A subject's Minimal Erythemal Dose (MED) was the quantity of erythema effective energy, or dose corresponding to the first site that produced the first unambiguous erythema reaction with well-defined borders. […]

SMILES | interference with the protective action of gadusol when combined (erythrocytes; gadusol and porphyra-334 combined) | cellular toxicity (Vero E6 fibroblasts) | toxicity towards E. coli (E. coli) | gadusol activity retained ([1]; aqueous, after 90 days at pH 2.5) [%] | extinction coefficient ([1]; at 296 nm) | toxicity in the comet assay (Comet assay) | antioxidant activity (erythrocytes; 0.133 mg/ml) | antioxidant activity versus porphyra-334 (erythrocytes; about 1 mg/ml) | in vitro SPF activity of gadusol by itself, formulation matrix (1.1) subtracted ([2]; 0.25-0.5% gadusol, no ZnO) | greater SPF when added to composition containing 10% ZnO ([2]; 0.5% (w/w) gadusol, in vitro) [%] | in vitro absorbance on addition to 10% ZnO sunscreen formulation ([2]; 0.5% gadusol, about 290 to about 325 nm, FIG. 6) | mutagenicity (Ames Test) | antioxidant power versus mycosporine compound from nori seaweed (porphyra-334) [3] | in vivo SPF relative to SPF conferred by 10% ZnO alone ([4]; 0.5% gadusol (w/w) in 10% ZnO formulation) | in vivo SPF relative to SPF conferred by 10% ZnO alone ([4]; 0.75% gadusol (w/w) in 10% ZnO formulation) [times] | in vivo SPF relative to SPF conferred by 10% ZnO alone ([4]; 1.0% gadusol (w/w) in 10% ZnO formulation) [times]
COC1=C(NCC(=O)O)C[C@@](O)(CO)CC1=N[C@H](C(=O)O)[C@@H](C)O [porphyra-334, reference compound] | did not interfere |  |  |  |  |  |  |  |  |  |  |  |  |  |  | 
COC1=C(O)CC(O)(CO)C(O)C1=O (stereo not shown) [gadusol] |  | less toxic | not found | 90 | 21,800 M^−1cm^−1 | nor was it toxic | Some in vivo antioxidant activity | significantly more active | 2.5-2.8 SPF units | ~50 | significantly more absorbance | not to be mutagenic | substantially equivalent | about 1.35 times | ~1.51 | ~2.0
